Experimental data reported in patent US6737383B1, “Herbicidal oxadiazolidines” (priority 1999, dated 2004).

What was measured:
bedstraw = assay: Test B pre/postemergence bedstraw; format: in vivo, Galium aparine; details: Preemergence
How it was run: (§1)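 Herbicidal effect was estimated by eye on a ten-point control scale after plants spent twelve to sixteen days in a greenhouse following soil or foliar treatment. Foliar sprays targeted plants at one to four leaves; all doses were formulated in a non-phytotoxic solvent with surfactant.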

blackgrass = assay: Test B pre/postemergence blackgrass; format: in vivo, Alopecurus myosuroides; details: for Blackgrass plant response rating: scale of 0 to 10 where 0 is no effect and 10 is complete control
How it was run: as §1

surinam grass = assay: Test B pre/postemergence surinam grass; format: in vivo, Brachiaria decumbens; details: for B. signalgrass plant response rating: scale of 0 to 10 where 0 is no effect and 10 is complete control
How it was run: as §1

corn = assay: Test B pre/postemergence corn; format: in vivo, Zea mays; details: for Corn plant response rating: scale of 0 to 10 where 0 is no effect and 10 is complete control
How it was run: as §1

crabgrass = assay: Test B pre/postemergence crabgrass; format: in vivo, Digitaria sanguinalis; details: for Crabgrass plant response rating: scale of 0 to 10 where 0 is no effect and 10 is complete control
How it was run: as §1

giant foxtail = assay: Test B pre/postemergence giant foxtail; format: in vivo, Setaria faberii; details: for Giant foxtail plant response rating: scale of 0 to 10 where 0 is no effect and 10 is complete control
How it was run: as §1

morningglory = assay: Test B pre/postemergence morningglory; format: in vivo, Ipomoea hederacea; details: for Morningglory plant response rating: scale of 0 to 10 where 0 is no effect and 10 is complete control
How it was run: as §1

pigweed = assay: Test B pre/postemergence pigweed; format: in vivo, Amaranthus retroflexus; details: for Redroot pigweed plant response rating: scale of 0 to 10 where 0 is no effect and 10 is complete control
How it was run: as §1

rape = assay: Test B pre/postemergence rape; format: in vivo, Brassica napus; details: for Rape plant response rating: scale of 0 to 10 where 0 is no effect and 10 is complete control
How it was run: as §1

sugar beet = assay: Test B pre/postemergence sugar beet; format: in vivo, Beta vulgaris; details: for Sugarbeets plant response rating: scale of 0 to 10 where 0 is no effect and 10 is complete control
How it was run: as §1

wheat = assay: Test B pre/postemergence wheat; format: in vivo, Triticum aestivum; details: for Wheat plant response rating: scale of 0 to 10 where 0 is no effect and 10 is complete control
How it was run: as §1

wild oat = assay: Test B pre/postemergence wild oat; format: in vivo, Avena fatua; details: for Wild oats plant response rating: scale of 0 to 10 where 0 is no effect and 10 is complete control
How it was run: as §1

purple nutsedge = assay: Test B pre/postemergence purple nutsedge; format: in vivo, Cyperus rotundus; details: for Nutsedge plant response rating: scale of 0 to 10 where 0 is no effect and 10 is complete control
How it was run: as §1

rice = assay: Test B flood test rice; format: in vivo, Oryza sativa
How it was run: (§2)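 Each value is a visual injury score relative to controls, with 10 meaning complete control and 0 no effect. Evaluation took place twelve to sixteen days after the 2-leaf-stage plants were treated and kept in the greenhouse.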

smallflower flatsedge = assay: Test B flood test smallflower flatsedge; format: in vivo, Cyperus difformis
How it was run: as §2

bamyardgrass = assay: Test B flood test barnyardgrass; format: in vivo, Echinochloa crus-galli
How it was run: as §2

[1] = Postemergence, Rate 125 g/ha, scale 0 to 10, 0 is no effect, 10 is complete control
[2] = Postemergence, Rate 250 g/ha, scale 0 to 10, 0 is no effect, 10 is complete control
[3] = Preemergence, Rate 62 g/ha, scale 0 to 10 (0 no effect, 10 complete control)
[4] = Rate 500 g/ha, Postemergence, scale 0 to 10, 0 no effect, 10 complete control
[5] = Rate 62 g/ha, flood test species, Pre-emergence, visual evaluation after twelve to sixteen days
[6] = Rate 125 g/ha, under heading Pre-emergence, flood test species, visual evaluation after twelve to sixteen days
[7] = Rate 250 g/ha, Pre-emergence, flood-test species, scale 0 to 10, 0 is no effect, 10 is complete control
[8] = Rate 500 g/ha, Pre-emergence, flood test species, scale 0 to 10 (0 no effect, 10 complete control)

Cc1nsc(Cl)c1Cn1c(=O)on(C(=O)N(c2ccccc2)C(C)C)c1=O [Compound 374]
Plant response rating, Bedstraw (bedstraw; Rate 62 g/ha, scale 0 to 10 (0 no effect, 10 complete control)): 0
Bedstraw plant response rating (0 to 10 scale) (bedstraw; Rate 125 g/ha): 0
Bedstraw plant response rating (bedstraw; Rate 250 g/ha, scale of 0 to 10 where 0 is no effect and 10 is complete control): 0
Plant response rating, Blackgrass (blackgrass; [1]): 0
Plant response rating, Blackgrass (blackgrass; [2]): 0
Plant response rating, Blackgrass (blackgrass; [3]): 0
Blackgrass plant response rating (0 to 10 scale) (blackgrass; Preemergence, Rate 125 g/ha): 2
Blackgrass plant response rating (blackgrass; Preemergence, Rate 250 g/ha): 5
Blackgrass plant response rating (blackgrass; Preemergence, Rate 500 g/ha): 6
Blackgrass plant response rating (blackgrass; Rate 62 g/ha, Postemergence): 0
Plant response rating, B. signalgrass (surinam grass; [1]): 0
Plant response rating, B. signalgrass (surinam grass; [2]): 0
Plant response rating, B. signalgrass (surinam grass; [3]): 0
B. signalgrass plant response rating (0 to 10 scale, 0 is no effect, 10 is complete control) (surinam grass; Preemergence, Rate 125 g/ha): 0
B. signalgrass plant response rating (surinam grass; Preemergence, Rate 250 g/ha): 2
B. signalgrass plant response rating (surinam grass; Preemergence, Rate 500 g/ha): 5
B. signalgrass plant response rating (surinam grass; Rate 62 g/ha, Postemergence): 0
Plant response rating, B. signalgrass (surinam grass; [4]): 0
Plant response rating, Corn (corn; [1]): 0
Plant response rating, Corn (corn; [2]): 0
Plant response rating, Corn (corn; [3]): 0
Corn plant response rating (0 to 10 scale) (corn; Preemergence, Rate 125 g/ha): 0
Corn plant response rating (corn; Preemergence, Rate 250 g/ha): 0
Corn plant response rating (corn; Preemergence, Rate 500 g/ha): 0
Corn plant response rating (corn; Rate 62 g/ha, Postemergence): 0
Plant response rating, Corn (corn; [4]): 0
Plant response rating, Crabgrass (crabgrass; [1]): 0
Plant response rating, Crabgrass (crabgrass; [2]): 0
Plant response rating, Crabgrass (crabgrass; [3]): 6
Crabgrass plant response rating (0 to 10 scale) (crabgrass; Preemergence, Rate 125 g/ha): 6
Crabgrass plant response rating (crabgrass; Preemergence, Rate 250 g/ha): 9
Crabgrass plant response rating (crabgrass; Preemergence, Rate 500 g/ha): 9
Crabgrass plant response rating (crabgrass; Rate 62 g/ha, Postemergence): 0
Plant response rating, Crabgrass (crabgrass; [4]): 3
Plant response rating, Giant foxtail (giant foxtail; [1]): 0
Plant response rating, Giant foxtail (giant foxtail; [2]): 2
Plant response rating, Giant foxtail (giant foxtail; [3]): 8
Giant foxtail plant response rating (0 to 10 scale) (giant foxtail; Preemergence, Rate 125 g/ha): 9
Giant foxtail plant response rating (giant foxtail; Preemergence, Rate 250 g/ha): 10
Giant foxtail plant response rating (giant foxtail; Preemergence, Rate 500 g/ha): 10
Giant foxtail plant response rating (giant foxtail; Rate 62 g/ha, Postemergence): 0
Plant response rating, Giant foxtail (giant foxtail; [4]): 8
Plant response rating, Morningglory (morningglory; [1]): 5
Plant response rating, Morningglory (morningglory; [2]): 10
Plant response rating, Morningglory (morningglory; [3]): 0
Morningglory plant response rating (0 to 10 scale) (morningglory; Preemergence, Rate 125 g/ha): 0
Morningglory plant response rating (morningglory; Preemergence, Rate 250 g/ha): 0
Morningglory plant response rating (morningglory; Preemergence, Rate 500 g/ha): 0
Plant response rating, Morningglory (morningglory; [4]): 10
Plant response rating, Redroot pigweed (pigweed; [1]): 0
Plant response rating, Redroot pigweed (pigweed; [2]): 2
Plant response rating, Redroot pigweed (pigweed; [3]): 0
Redroot pigweed plant response rating (0 to 10 scale) (pigweed; Preemergence, Rate 125 g/ha): 0
Redroot pigweed plant response rating (pigweed; Preemergence, Rate 250 g/ha): 0
Redroot pigweed plant response rating (pigweed; Rate 62 g/ha, Postemergence): 0
Plant response rating, Redroot pigweed (pigweed; [4]): 6
Plant response rating, Rape (rape; [1]): 2
Plant response rating, Rape (rape; [2]): 2
Plant response rating, Rape (rape; [3]): 0
Rape plant response rating (0 to 10 scale) (rape; Preemergence, Rate 125 g/ha): 0
Rape plant response rating (rape; Preemergence, Rate 250 g/ha): 2
Rape plant response rating (rape; Preemergence, Rate 500 g/ha): 7
Rape plant response rating (rape; Rate 62 g/ha, Postemergence): 0
Plant response rating, Rape (rape; [4]): 7
Plant response rating, Sugarbeets (sugar beet; [1]): 0
Plant response rating, Sugarbeets (sugar beet; [2]): 0
Plant response rating, Sugarbeets (sugar beet; [3]): 0
Sugarbeets plant response rating (0 to 10 scale) (sugar beet; Preemergence, Rate 125 g/ha): 0
Sugarbeets plant response rating (sugar beet; Preemergence, Rate 250 g/ha): 0
Sugarbeets plant response rating (sugar beet; Preemergence, Rate 500 g/ha): 4
Sugarbeets plant response rating (sugar beet; Rate 62 g/ha, Postemergence): 0
Plant response rating, Sugarbeets (sugar beet; [4]): 4
Plant response rating, Wheat (wheat; [1]): 0
Plant response rating, Wheat (wheat; [2]): 0
Plant response rating, Wheat (wheat; [3]): 0
Wheat plant response rating (0 to 10 scale) (wheat; Preemergence, Rate 125 g/ha): 0
Wheat plant response rating (wheat; Preemergence, Rate 250 g/ha): 0
Wheat plant response rating (wheat; Preemergence, Rate 500 g/ha): 0
Wheat plant response rating (wheat; Rate 62 g/ha, Postemergence): 0
Plant response rating, Wheat (wheat; [4]): 0
Plant response rating, Wild oats (wild oat; [1]): 0
Plant response rating, Wild oats (wild oat; [2]): 0
Plant response rating, Wild oats (wild oat; [3]): 0
Wild oats plant response rating (0 to 10 scale) (wild oat; Preemergence, Rate 125 g/ha): 0
Wild oats plant response rating (wild oat; Preemergence, Rate 250 g/ha): 0
Wild oats plant response rating (wild oat; Preemergence, Rate 500 g/ha): 0
Wild oats plant response rating (wild oat; Rate 62 g/ha, Postemergence): 0
Plant response rating, Nutsedge (purple nutsedge; [1]): 0
Plant response rating, Nutsedge (purple nutsedge; [2]): 0
Plant response rating, Nutsedge (purple nutsedge; [3]): 0
Nutsedge plant response rating (0 to 10 scale) (purple nutsedge; Preemergence, Rate 125 g/ha): 0
Nutsedge plant response rating (purple nutsedge; Preemergence, Rate 250 g/ha): 0
Nutsedge plant response rating (purple nutsedge; Preemergence, Rate 500 g/ha): 0
Nutsedge plant response rating (purple nutsedge; Rate 62 g/ha, Postemergence): 0
Plant response rating, Nutsedge (purple nutsedge; [4]): 0
Plant response rating, Rice (0 to 10 scale, 0 is no effect, 10 is complete control) (rice; [5]): 0
Rice plant response rating (0 to 10 scale, 0 is no effect, 10 is complete control) (rice; [6]): 0
Rice plant response rating (rice; [7]): 0
Rice plant response rating (rice; [8]): 0
Plant response rating, S. Flatsedge (0 to 10 scale, 0 is no effect, 10 is complete control) (smallflower flatsedge; [5]): 0
S. Flatsedge plant response rating (0 to 10 scale, 0 is no effect, 10 is complete control) (smallflower flatsedge; [6]): 0
S. Flatsedge plant response rating (smallflower flatsedge; [7]): 0
S. Flatsedge plant response rating (smallflower flatsedge; [8]): 0
Plant response rating, Barnyardgrass (0 to 10 scale, 0 is no effect, 10 is complete control) (bamyardgrass; [5]): 0
Barnyardgrass plant response rating (0 to 10 scale, 0 is no effect, 10 is complete control) (bamyardgrass; [6]): 0
Barnyardgrass plant response rating (bamyardgrass; [7]): 0
Barnyardgrass plant response rating (bamyardgrass; [8]): 0
